In patent publication US20180045715A1, “STRUCTURE AND FUNCTION OF THE SALICYCLIC ACID BINDING SITES ON HUMAN HMGB1 AND METHODS OF USE THEREOF FOR THE RATIONAL DESIGN OF BOTH SALICYCLIC ACID DERIVATIVES AND OTHER AGENTS THAT ALTER ANIMAL AND PLANT HMGBS ACTIVITIES” (Boyce Thompson Institute for Plant Research, Inc., priority 2015, published 2018):

Tests used:
[1] = target: T1, AtHMGB3 (Arabidopsis thaliana, UniProt P93047); conditions: co-infiltration of 1-10 μM SA, 1 μM AtHMGB3
T1 sequence (P93047 1-141): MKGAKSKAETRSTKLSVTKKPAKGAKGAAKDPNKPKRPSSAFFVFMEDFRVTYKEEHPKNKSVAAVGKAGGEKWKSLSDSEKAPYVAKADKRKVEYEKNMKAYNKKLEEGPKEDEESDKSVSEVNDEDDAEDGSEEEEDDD
Method: To detect the phosphorylation of Arabidopsis MAPKs (MPK3/4/6), 3 to 4 week-old soil grown Arabidopsis leaves were infiltrated with 1 μM AtHMGB3 or 1 μM Pep1 peptide ([…]; synthesized by GenScript USA Inc.). Two leaf disks were cut from the leaf center of two different leaves using a cork borer (diameter=0.7 cm) and immediately frozen and ground to fine powder in liquid nitrogen. […] The protein concentration of supernatant was measured using the Bradford reagent (Bio-Rad). Forty μg of proteins per sample was separated on the 8% SDS-PAGE and transferred to a PVDF membrane for immunoblotting using the anti-phospho-p44/42 MAPK antibody (Cell Signaling Technology). The large subunit of Rubisco was visualized by Coomassie Brilliant Blue (CBB) staining of the PVDF membrane in order to assess consistency of loading.

[2] = tested on: Pep1; assay: Callose staining: Pep1-induced callose deposition in Arabidopsis leaves; format: in vivo, Arabidopsis thaliana; conditions: 100 nM Pep1, 15 h
Method: Arabidopsis leaves were collected 15 h after infiltration with 100 nM AtHMGB3 or 100 nM Pep1, and then immediately immersed in alcoholic lactophenol (phenol:glycerol:lactic acid:water:ethanol=1:1:1:1:8) to destain the chlorophyll. To remove the background fluorescence, destained leaves were treated with toluidine blue O solution (0.05% toluidine blue O, 0.1 M sodium acetate, pH 4.4) for 30 min, and then rinsed twice with 150 mM K2HPO4 (pH 9.5). Callose was stained with aniline blue solution (0.02% aniline blue, 150 mM K2HPO4, pH 9.5) for 30 min in the absence of light. The aniline blue-stained leaves were mounted with 25% glycerol and analyzed using a Leica DM5500 epifluorescence microscope. The number of callose loci was quantified using an ImageJ (NIH).

O=C(O)c1ccccc1O [SA, salicylic acid]
effect on MPK3/6 activation by AtHMGB3 [1]: blocked | effect on Pep1-induced callose deposition [2]: unaffected
